# Measurements: patent US11298333B1, “Methods of reducing the risk of cardiovascular events in a subject” (Amarin Pharmaceuticals Ireland Limited, priority 2018, dated 2022)
# Read-outs that look alike come from different tables or passages of the source.
# Test system: hypertriglyceridemic patients with cardiovascular disease or at high risk for cardiovascular disease
# Format: in vivo
# Details: for Key secondary composite endpoint: relative risk reduction vs placebo / Primary composite endpoint: relative risk reduction vs placebo: over 5 years
# Description: The following study, also referred to as the REDUCE-IT clinical trial, was a large cardiovascular (CV) outcome trial designed to assess CV risk reduction benefit of AMR101 treatment (commercially known as VASCEPA®) versus placebo on the 5-point primary composite endpoint: CV death, non-fatal stroke, non-fatal myocardial infarction (MI), coronary revascularizations, or unstable angina requiring hospitalization.
# A multi-center, prospective, randomized, double-blind, placebo-controlled, parallel-group study was performed to evaluate the effect of AMR101 (4 g per day) on cardiovascular health and mortality in hypertriglyceridemic patients with cardiovascular disease or at high risk for cardiovascular disease. The intended expanded indication of the study was treatment with AMR101 as an add-on to statin therapy to reduce the risk of cardiovascular events in patients with clinical cardiovascular disease or with multiple risk factors for cardiovascular disease.
# The primary objective of this study was, in patients at LDL-C goal while on statin therapy, with established cardiovascular disease (CVD) or at high risk for CVD, and hypertriglyceridemia (e.g., fasting triglycerides (TG) ≥200 mg/dL and <500 mg/dL), to evaluate the effect of AMR101 4 g daily on time from randomization to first occurrence of any component of the composite of the following major CV events: CV death; nonfatal MI; (including silent MI; electrocardiograms (ECGs) were performed annually for the detection of silent MIs); nonfatal stroke; coronary revascularization; and unstable angina determined to be caused by myocardial ischemia by invasive/non-invasive testing and requiring emergent hospitalization.
# The key secondary objective of this study was to evaluate the effect of AMR101 4 g daily on the time from randomization to the first occurrence of the composite of following major CV events: CV death, nonfatal MI (including silent MI), and nonfatal stroke.
# Other secondary objectives for this study were to evaluate the effect of therapy on time from randomization to the first occurrence of the following individual or composite endpoints: composite of CV death or nonfatal MI (including silent MI); fatal or nonfatal MI (including silent MI); non-elective coronary revascularization represented as the composite of emergent or urgent classifications; CV death; unstable angina determined to be caused by myocardial ischemia by invasive/non-invasive testing and requiring emergent hospitalization; fatal or nonfatal stroke; composite of total mortality, nonfatal MI (including silent MI), or nonfatal stroke; and total mortality.
# Primary Efficacy Endpoint: The primary efficacy endpoint was time from randomization to the first occurrence of the composite of the following clinical events: CV death; nonfatal MI (including silent MI; ECGs were performed annually for the detection of silent MIs); nonfatal stroke; coronary revascularization; and unstable angina determined to be caused by myocardial ischemia by invasive/non-invasive testing and requiring emergent hospitalization. The first occurrence of any of these major adverse vascular events during the follow-up period of the study were included in the incidence.
# Secondary Efficacy Endpoints: The key secondary efficacy endpoint was the time from randomization to the first occurrence of the composite of CV death, nonfatal MI (including silent MI), or nonfatal stroke. […]
# [1] = 4 g/day, ITT, hierarchical secondary endpoint
# [2] = 4 g/day, ITT, median follow-up 4.9 years
# [3] = 4 g/day, ITT, time to first event, median follow-up 4.9 years
# [4] = 4 g/day, ITT, time to first event
# [5] = 4 g/day, ITT, time to first event, listed as AMR101
smiles,measurement,setting,value
"CC/C=C\C/C=C\C/C=C\C/C=C\C/C=C\CCCC(=O)OCC [Icosapent Ethyl, eicosapentaenoic acid ethyl ester]",Cardiac arrest: reduction vs placebo,4 g/day,48%
same,Reduction in heart attack vs placebo,4 g/day,31%
same,Sudden death: reduction vs placebo,4 g/day,31%
same,Cardiovascular death: relative risk reduction vs placebo,"4 g/day, ITT",20%
same,Composite of cardiovascular death or nonfatal myocardial infarction: RRR,"4 g/day, ITT",25%
same,"Composite of total mortality, nonfatal myocardial infarction, or nonfatal stroke: RRR","4 g/day, ITT",23%
same,Fatal or nonfatal myocardial infarction: RRR,"4 g/day, ITT",31%
same,Fatal or nonfatal stroke: RRR,"4 g/day, ITT",28%
same,Total mortality: HR vs placebo,"4 g/day, ITT",0.87
same,Total mortality: relative risk reduction vs placebo,"4 g/day, ITT",13%
same,Cardiovascular death: HR vs placebo,[1],0.80
same,Cardiovascular death: patients with event,[1],4.3%
same,Total mortality (death from any cause): patients with event,"4 g/day, ITT, last hierarchical secondary endpoint",6.7%
same,Key secondary composite endpoint: absolute risk reduction vs placebo,[2],3.6%
same,Primary composite endpoint: absolute risk reduction vs placebo,[2],4.8%
same,"Key secondary composite endpoint (CV death, nonfatal MI, or nonfatal stroke): patients with event",[3],11.2%
same,"Primary composite endpoint (CV death, nonfatal MI, nonfatal stroke, coronary revascularization, or unstable angina): patients with event",[3],17.2%
same,Key secondary composite endpoint: relative risk reduction vs placebo,[4],26%
same,Primary composite endpoint: relative risk reduction vs placebo,[4],25%
same,Key secondary composite endpoint: relative risk reduction vs placebo,[5],26%
same,Primary composite endpoint: relative risk reduction vs placebo,[5],25%
same,Adjudicated tertiary endpoint of heart failure: patients with event,"4 g/day, no significant difference vs placebo",4.1%
same,Primary endpoint: risk reduction in post hoc analysis excluding patients with diarrhea,post hoc,25%
same,Adjudicated sudden cardiac death: patients with event,"tertiary endpoint, 4 g/day, ITT",1.5%
same,Cardiac Arrest: HR (95% CI),"tertiary endpoint, vs placebo","0.52 (0.31, 0.86)"
same,Coronary Revascularization: HR (95% CI),"tertiary endpoint, vs placebo","0.66 (0.58, 0.76)"
same,Elective Revascularization: HR (95% CI),"tertiary endpoint, vs placebo","0.68 (0.57, 0.82)"
same,Emergent Revascularization: HR (95% CI),"tertiary endpoint, vs placebo","0.62 (0.42, 0.92)"
same,Ischemic Stroke: HR (95% CI),"tertiary endpoint, vs placebo","0.64 (0.49, 0.85)"
same,New Heart Failure Requiring Hospitalization: HR (95% CI),"tertiary endpoint, vs placebo","0.97 (0.77, 1.22)"
same,New Heart Failure: HR (95% CI),"tertiary endpoint, vs placebo","0.95 (0.77, 1.17)"
same,Primary Endpoint in Patients with Diabetes at Baseline: HR (95% CI),"tertiary endpoint, vs placebo","0.77 (0.68, 0.87)"
same,Salvage Revascularization: HR (95% CI),"tertiary endpoint, vs placebo","0.00 (0.00, —)"
same,Urgent Revascularization: HR (95% CI),"tertiary endpoint, vs placebo","0.66 (0.54, 0.79)"
